From PubChem BioAssay (NCI)
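Compound exposure: 48 hours, 5 concentrations, 96-well plates. Here, GI50 denotes the concentration required for 50% inhibition of growth. TGI denotes the concentration required for complete inhibition of growth.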

Key:
Assay in all cases: NCI-60 cell line screen, 48 h
SNB-75 CNS = tested on: SNB-75 CNS
MDA-N = tested on: MDA-N
U251 CNS = tested on: U251 CNS
MDA-MB-435 = tested on: MDA-MB-435
NCI-H226 lung = tested on: NCI-H226 lung
MDA-MB-231 breast = tested on: MDA-MB-231 breast
PC-3 prostate = tested on: PC-3 prostate
DU-145 prostate = tested on: DU-145 prostate
HCT-15 colon = tested on: HCT-15 colon
IGROV1 ovarian = tested on: IGROV1 ovarian
OVCAR-3 ovarian = tested on: OVCAR-3 ovarian
HOP-92 NSCLC = tested on: HOP-92 NSCLC
SF-539 CNS = tested on: SF-539 CNS
HCT-116 colon = tested on: HCT-116 colon
NCI-H23 lung = tested on: NCI-H23 lung
SK-MEL-28 melanoma = tested on: SK-MEL-28 melanoma
COLO 205 colon = tested on: COLO 205 colon
TK-10 renal = tested on: TK-10 renal
SW-620 colon = tested on: SW-620 colon
SF-295 CNS = tested on: SF-295 CNS
CAKI-1 renal = tested on: CAKI-1 renal
NCI/ADR-RES ovarian = tested on: NCI/ADR-RES ovarian
SNB-19 CNS = tested on: SNB-19 CNS
KM12 colon = tested on: KM12 colon
RXF 393 renal = tested on: RXF 393 renal
SK-MEL-5 melanoma = tested on: SK-MEL-5 melanoma
SF-268 CNS = tested on: SF-268 CNS
OVCAR-4 ovarian = tested on: OVCAR-4 ovarian
HT29 colon = tested on: HT29 colon
SN12C renal = tested on: SN12C renal
M14 melanoma = tested on: M14 melanoma
ACHN renal = tested on: ACHN renal
EKVX NSCLC = tested on: EKVX NSCLC
OVCAR-8 ovarian = tested on: OVCAR-8 ovarian
A549 NSCLC = tested on: A549 NSCLC
OVCAR-5 ovarian = tested on: OVCAR-5 ovarian
UO-31 renal = tested on: UO-31 renal
SK-OV-3 ovarian = tested on: SK-OV-3 ovarian
K-562 leukemia = tested on: K-562 leukemia
HOP-62 NSCLC = tested on: HOP-62 NSCLC
MOLT-4 leukemia = tested on: MOLT-4 leukemia
NCI-H460 lung = tested on: NCI-H460 lung
CCRF-CEM leukemia = tested on: CCRF-CEM leukemia
HCC-2998 colon = tested on: HCC-2998 colon
NCI-H522 lung = tested on: NCI-H522 lung
RPMI-8226 leukemia = tested on: RPMI-8226 leukemia
UACC-257 melanoma = tested on: UACC-257 melanoma
HS 578T breast = tested on: HS 578T breast
HL-60(TB) leukemia = tested on: HL-60(TB) leukemia
SR leukemia = tested on: SR leukemia
T-47D breast = tested on: T-47D breast
786-0 renal = tested on: 786-0 renal
MCF7 breast = tested on: MCF7 breast
UACC-62 melanoma = tested on: UACC-62 melanoma
BT-549 breast = tested on: BT-549 breast
MALME-3M melanoma = tested on: MALME-3M melanoma
SK-MEL-2 melanoma = tested on: SK-MEL-2 melanoma
LOX IMVI melanoma = tested on: LOX IMVI melanoma
A498 renal = tested on: A498 renal

COC(=O)C1ON2C(C1C(=O)OC)C(C)(C)N(O)C2(C)C (configuration not stated)
TGI (SNB-75 CNS): > 10 µM
TGI (MDA-N): > 10 µM
TGI (U251 CNS): > 10 µM
TGI (MDA-MB-435): > 10 µM
TGI (NCI-H226 lung): > 10 µM
TGI (MDA-MB-231 breast): > 10 µM
TGI (PC-3 prostate): > 10 µM
TGI (DU-145 prostate): > 10 µM
TGI (HCT-15 colon): > 10 µM
TGI (IGROV1 ovarian): > 10 µM
TGI (OVCAR-3 ovarian): > 10 µM
TGI (HOP-92 NSCLC): > 10 µM
TGI (SF-539 CNS): > 10 µM
TGI (HCT-116 colon): > 10 µM
TGI (NCI-H23 lung): > 10 µM
TGI (SK-MEL-28 melanoma): > 10 µM
TGI (COLO 205 colon): > 10 µM
TGI (TK-10 renal): > 10 µM
TGI (SW-620 colon): > 10 µM
TGI (SF-295 CNS): > 10 µM
TGI (CAKI-1 renal): > 10 µM
TGI (NCI/ADR-RES ovarian): > 10 µM
TGI (SNB-19 CNS): > 10 µM
TGI (KM12 colon): > 10 µM
TGI (RXF 393 renal): > 10 µM
TGI (SK-MEL-5 melanoma): > 10 µM
TGI (SF-268 CNS): > 10 µM
TGI (OVCAR-4 ovarian): > 10 µM
TGI (HT29 colon): > 10 µM
TGI (SN12C renal): > 10 µM
TGI (M14 melanoma): > 10 µM
TGI (ACHN renal): > 10 µM
TGI (EKVX NSCLC): > 10 µM
TGI (OVCAR-8 ovarian): > 10 µM
TGI (A549 NSCLC): > 10 µM
TGI (OVCAR-5 ovarian): > 10 µM

CC(=O)OC1CC[C@@]2(C)C(C1)CC(OC(C)=O)[C@@H]1C2CC(OC(C)=O)[C@]2(C)C(C(C)CC=C(c3ccc(Cl)cc3)c3ccc(Cl)cc3)CCC12 (some centres not stated)
TGI (UO-31 renal): > 100 µM
TGI (SK-OV-3 ovarian): > 100 µM
TGI (SNB-75 CNS): > 100 µM
TGI (MDA-N): > 100 µM
TGI (U251 CNS): > 100 µM
TGI (MDA-MB-435): > 100 µM
TGI (MDA-MB-231 breast): > 100 µM
TGI (K-562 leukemia): > 100 µM
TGI (HOP-62 NSCLC): > 100 µM
TGI (PC-3 prostate): > 100 µM
TGI (HCT-15 colon): > 100 µM
TGI (MOLT-4 leukemia): > 100 µM
TGI (IGROV1 ovarian): > 100 µM
TGI (NCI-H460 lung): > 100 µM
TGI (CCRF-CEM leukemia): 95.2 µM
TGI (SF-539 CNS): > 100 µM
TGI (HCT-116 colon): > 100 µM
TGI (SK-MEL-28 melanoma): > 100 µM
TGI (COLO 205 colon): > 100 µM
TGI (HCC-2998 colon): > 100 µM
TGI (TK-10 renal): > 100 µM
TGI (NCI-H522 lung): > 100 µM
TGI (SW-620 colon): > 100 µM
TGI (SF-295 CNS): > 100 µM
TGI (RPMI-8226 leukemia): 56.8 µM
TGI (UACC-257 melanoma): > 100 µM
TGI (HS 578T breast): > 100 µM
TGI (NCI/ADR-RES ovarian): > 100 µM
TGI (HL-60(TB) leukemia): 27.9 µM
TGI (SR leukemia): > 100 µM
TGI (SNB-19 CNS): > 100 µM
TGI (KM12 colon): > 100 µM
TGI (SK-MEL-5 melanoma): > 100 µM
TGI (T-47D breast): > 100 µM
TGI (786-0 renal): > 100 µM
TGI (SF-268 CNS): > 100 µM
TGI (OVCAR-4 ovarian): > 100 µM
TGI (HT29 colon): > 100 µM
TGI (SN12C renal): > 100 µM
TGI (M14 melanoma): > 100 µM
TGI (ACHN renal): > 100 µM
TGI (MCF7 breast): > 100 µM
TGI (EKVX NSCLC): > 100 µM
TGI (OVCAR-8 ovarian): > 100 µM
TGI (A549 NSCLC): > 100 µM
TGI (OVCAR-5 ovarian): > 100 µM

COC(=O)C1(C2CC/C(C)=C/CC/C(C)=C/CC[C@@]3(C)O[C@@H]3C2)CC1 (some centres not stated)
GI50 (UO-31 renal): 26.6 µM
TGI (UO-31 renal): > 56.3 µM
GI50 (SK-OV-3 ovarian): > 100 µM
TGI (SK-OV-3 ovarian): > 100 µM
GI50 (SNB-75 CNS): > 100 µM
TGI (SNB-75 CNS): > 100 µM
GI50 (U251 CNS): 39.1 µM
TGI (U251 CNS): > 100 µM
GI50 (MDA-MB-435): 32.1 µM
TGI (MDA-MB-435): 98.3 µM
GI50 (UACC-62 melanoma): > 100 µM
TGI (UACC-62 melanoma): > 100 µM
GI50 (NCI-H226 lung): > 72.2 µM
TGI (NCI-H226 lung): > 100 µM
GI50 (MDA-MB-231 breast): > 48.6 µM
TGI (MDA-MB-231 breast): > 74.7 µM
GI50 (K-562 leukemia): 29.1 µM
TGI (K-562 leukemia): 99.6 µM
GI50 (HOP-62 NSCLC): 25.8 µM
TGI (HOP-62 NSCLC): 65.8 µM
GI50 (PC-3 prostate): 36.5 µM
TGI (PC-3 prostate): > 100 µM
GI50 (DU-145 prostate): 33.6 µM
TGI (DU-145 prostate): > 100 µM
GI50 (HCT-15 colon): > 66.7 µM
TGI (HCT-15 colon): > 100 µM
GI50 (BT-549 breast): > 100 µM
TGI (BT-549 breast): > 100 µM
GI50 (MOLT-4 leukemia): 29.3 µM
TGI (MOLT-4 leukemia): > 100 µM
GI50 (IGROV1 ovarian): 30.3 µM
TGI (IGROV1 ovarian): > 72 µM
GI50 (OVCAR-3 ovarian): 62.9 µM
TGI (OVCAR-3 ovarian): > 100 µM
GI50 (NCI-H460 lung): 35.5 µM
TGI (NCI-H460 lung): > 100 µM
GI50 (HOP-92 NSCLC): 27.3 µM
TGI (HOP-92 NSCLC): > 100 µM
GI50 (CCRF-CEM leukemia): 25.7 µM
TGI (CCRF-CEM leukemia): 65.3 µM
GI50 (SF-539 CNS): 35.2 µM
TGI (SF-539 CNS): > 69.2 µM
GI50 (HCT-116 colon): 33 µM
TGI (HCT-116 colon): > 100 µM
GI50 (MALME-3M melanoma): > 83.8 µM
TGI (MALME-3M melanoma): > 100 µM
GI50 (NCI-H23 lung): 46.1 µM
TGI (NCI-H23 lung): > 100 µM
GI50 (SK-MEL-28 melanoma): > 100 µM
TGI (SK-MEL-28 melanoma): > 100 µM
GI50 (COLO 205 colon): > 56.5 µM
TGI (COLO 205 colon): > 100 µM
GI50 (SK-MEL-2 melanoma): > 100 µM
TGI (SK-MEL-2 melanoma): > 100 µM
TGI (HCC-2998 colon): > 20.8 µM
GI50 (TK-10 renal): > 59.6 µM
TGI (TK-10 renal): > 100 µM
GI50 (NCI-H522 lung): 50.4 µM
TGI (NCI-H522 lung): > 100 µM
GI50 (SW-620 colon): 40 µM
TGI (SW-620 colon): > 100 µM
GI50 (SF-295 CNS): > 60.4 µM
TGI (SF-295 CNS): > 100 µM
GI50 (RPMI-8226 leukemia): 16.9 µM
TGI (RPMI-8226 leukemia): 48.4 µM
GI50 (CAKI-1 renal): 32.1 µM
TGI (CAKI-1 renal): > 85 µM
GI50 (UACC-257 melanoma): > 83.7 µM
TGI (UACC-257 melanoma): > 100 µM
GI50 (LOX IMVI melanoma): 23.6 µM
TGI (LOX IMVI melanoma): > 60.5 µM
GI50 (HS 578T breast): > 91.2 µM
TGI (HS 578T breast): > 100 µM
GI50 (NCI/ADR-RES ovarian): > 55 µM
TGI (NCI/ADR-RES ovarian): > 100 µM
GI50 (HL-60(TB) leukemia): 25.2 µM
TGI (HL-60(TB) leukemia): > 83.5 µM
GI50 (SR leukemia): 12.4 µM
TGI (SR leukemia): > 51.9 µM
GI50 (SNB-19 CNS): > 100 µM
TGI (SNB-19 CNS): > 100 µM
GI50 (KM12 colon): 18.9 µM
TGI (KM12 colon): 43.5 µM
GI50 (RXF 393 renal): > 38.2 µM
TGI (RXF 393 renal): > 100 µM
GI50 (SK-MEL-5 melanoma): 56.1 µM
TGI (SK-MEL-5 melanoma): > 100 µM
GI50 (T-47D breast): > 93 µM
TGI (T-47D breast): > 100 µM
GI50 (A498 renal): > 100 µM
TGI (A498 renal): > 100 µM
GI50 (786-0 renal): 35.5 µM
TGI (786-0 renal): > 70 µM
GI50 (SF-268 CNS): > 100 µM
TGI (SF-268 CNS): > 100 µM
GI50 (OVCAR-4 ovarian): > 100 µM
TGI (OVCAR-4 ovarian): > 100 µM
GI50 (HT29 colon): 68.1 µM
TGI (HT29 colon): > 100 µM
GI50 (SN12C renal): > 100 µM
TGI (SN12C renal): > 100 µM
GI50 (M14 melanoma): 37.5 µM
TGI (M14 melanoma): > 72.2 µM
GI50 (ACHN renal): > 41.3 µM
TGI (ACHN renal): > 62.2 µM
GI50 (MCF7 breast): 51.1 µM
TGI (MCF7 breast): > 100 µM
GI50 (EKVX NSCLC): > 100 µM
TGI (EKVX NSCLC): > 100 µM
GI50 (OVCAR-8 ovarian): > 44.3 µM
TGI (OVCAR-8 ovarian): > 65.1 µM
GI50 (A549 NSCLC): 29 µM
TGI (A549 NSCLC): > 80.3 µM
GI50 (OVCAR-5 ovarian): > 100 µM
TGI (OVCAR-5 ovarian): > 100 µM
